From the NIST ThermoML archive (doi:10.1016/j.fluid.2010.05.019)
± gives the expanded uncertainty stated by the source. Blank lines part the entries; values can stand above or below the compound they belong to.

Columns and labels:
[1] = 298.15 K, Liquid; for electrical conductivity: 101 kPa, Alternating current cell with electrodes; for viscosity / mass density: 101.33 kPa; for viscosity: Cone and plate viscometry; for mass density: Pycnometric method
[2] = wn = mass fraction of the nth substance listed; conditions: 298.15 K, 101 kPa, Liquid, Alternating current cell with electrodes

electrical conductivity [1]: 0.064 ± 0.005 S/m | viscosity [1]: 74.4 mPa·s | mass density [1]: 931.5 ± 60 kg/m3
Structure (SMILES): C1CC[NH2+]C1.CCCCCCCCC(=O)[O-] [pyrrolidinium nonanoate]

electrical conductivity [1]: 0.415 ± 0.033 S/m | viscosity [1]: 8.2 mPa·s | mass density [1]: 1153 ± 60 kg/m3
Structure (SMILES): O=C[O-].c1ccc2[nH+]cccc2c1 [quinolinium formate]

electrical conductivity ([2]; w1 = 1): 0.0001 ± 0.0001 S/m
Structure (SMILES): O [water] + O=C[O-].c1ccc2[nH+]cccc2c1

electrical conductivity ([2]; w2 = 0): 0.586 ± 0.047 S/m | electrical conductivity ([2]; w2 = 0.0625): 0.88 ± 0.07 S/m | electrical conductivity ([2]; w2 = 0.1176): 1.13 ± 0.091 S/m | electrical conductivity ([2]; w2 = 0.1667): 1.39 ± 0.11 S/m | electrical conductivity ([2]; w2 = 0.2105): 1.67 ± 0.13 S/m | electrical conductivity ([2]; w2 = 0.25): 1.96 ± 0.16 S/m | electrical conductivity ([2]; w2 = 0.3182): 2.4 ± 0.19 S/m | electrical conductivity ([2]; w2 = 0.3478): 2.63 ± 0.21 S/m | electrical conductivity ([2]; w2 = 0.4231): 3.11 ± 0.25 S/m | electrical conductivity ([2]; w2 = 0.4643): 3.36 ± 0.27 S/m | electrical conductivity ([2]; w2 = 0.5): 3.51 ± 0.28 S/m | electrical conductivity ([2]; w2 = 0.5588): 3.86 ± 0.31 S/m | electrical conductivity ([2]; w2 = 0.5833): 3.93 ± 0.31 S/m | electrical conductivity ([2]; w2 = 0.6053): 3.96 ± 0.32 S/m | electrical conductivity ([2]; w2 = 0.625): 3.97 ± 0.32 S/m | electrical conductivity ([2]; w2 = 0.6429): 3.97 ± 0.32 S/m | electrical conductivity ([2]; w2 = 0.6591): 3.96 ± 0.32 S/m | electrical conductivity ([2]; w2 = 0.7): 3.97 ± 0.32 S/m | electrical conductivity ([2]; w2 = 0.7115): 3.97 ± 0.32 S/m | electrical conductivity ([2]; w2 = 0.7222): 3.96 ± 0.32 S/m
Structure (SMILES): CC[NH+](C(C)C)C(C)C.O=C[O-] [ethyldiisopropylammonium formate] + O

electrical conductivity [1]: 0.586 ± 0.047 S/m | viscosity [1]: 18 mPa·s | mass density [1]: 1014.4 ± 60 kg/m3
Structure (SMILES): CC[NH+](C(C)C)C(C)C.O=C[O-] [ethyldiisopropylammonium formate]

electrical conductivity [1]: 5.01 ± 0.4 S/m | viscosity [1]: 5.2 mPa·s
Structure (SMILES): C1CC[NH2+]C1.O=[N+]([O-])[O-] [pyrrolidinium nitrate]

electrical conductivity [1]: 0.0001 ± 0.0001 S/m
Structure (SMILES): O [water]

electrical conductivity ([2]; w1 = 1): 0.0001 ± 0.0001 S/m
Structure (SMILES): O [water] + C1CC[NH2+]C1.CC(=O)[O-]

electrical conductivity ([2]; w1 = 1): 0.0001 ± 0.0001 S/m
Structure (SMILES): O [water] + C1CC[NH2+]C1.CCCCCCC(=O)[O-]

electrical conductivity ([2]; w2 = 0): 0.415 ± 0.033 S/m | electrical conductivity ([2]; w2 = 0.0566): 0.621 ± 0.05 S/m | electrical conductivity ([2]; w2 = 0.0909): 0.854 ± 0.068 S/m | electrical conductivity ([2]; w2 = 0.1667): 1.38 ± 0.11 S/m | electrical conductivity ([2]; w2 = 0.2): 1.59 ± 0.13 S/m | electrical conductivity ([2]; w2 = 0.2593): 2.01 ± 0.16 S/m | electrical conductivity ([2]; w2 = 0.3103): 2.47 ± 0.2 S/m | electrical conductivity ([2]; w2 = 0.3548): 2.84 ± 0.23 S/m | electrical conductivity ([2]; w2 = 0.3939): 3.1 ± 0.25 S/m | electrical conductivity ([2]; w2 = 0.4444): 3.49 ± 0.28 S/m | electrical conductivity ([2]; w2 = 0.4595): 3.59 ± 0.29 S/m | electrical conductivity ([2]; w2 = 0.5): 3.81 ± 0.3 S/m | electrical conductivity ([2]; w2 = 0.5652): 4.11 ± 0.33 S/m | electrical conductivity ([2]; w2 = 0.6): 4.23 ± 0.34 S/m | electrical conductivity ([2]; w2 = 0.6552): 4.3 ± 0.34 S/m | electrical conductivity ([2]; w2 = 0.7059): 4.26 ± 0.34 S/m | electrical conductivity ([2]; w2 = 0.75): 4.12 ± 0.33 S/m | electrical conductivity ([2]; w2 = 0.8): 3.94 ± 0.32 S/m | electrical conductivity ([2]; w2 = 0.8571): 3.37 ± 0.27 S/m | electrical conductivity ([2]; w2 = 0.9): 2.75 ± 0.22 S/m
Structure (SMILES): O=C[O-].c1ccc2[nH+]cccc2c1 [quinolinium formate] + O

Second part, the compound before the results:

Structure (SMILES): Cc1cccc[n+]1C.O=C[O-] [1,2-dimethylpyridinium formate]
electrical conductivity [1]: 1.04 ± 0.083 S/m | viscosity [1]: 2.61 mPa·s | mass density [1]: 1020.9 ± 60 kg/m3

Structure (SMILES): O [water] + CC[NH+](C(C)C)C(C)C.O=C[O-]
electrical conductivity ([2]; w1 = 1): 0.0001 ± 0.0001 S/m

Structure (SMILES): CCCC(C)[NH3+].O=C[O-] (stereo not given) [2-pentanaminium formate] + O
electrical conductivity ([2]; w2 = 0): 0.036 ± 0.003 S/m | electrical conductivity ([2]; w2 = 0.056): 0.121 ± 0.01 S/m | electrical conductivity ([2]; w2 = 0.1005): 0.197 ± 0.016 S/m | electrical conductivity ([2]; w2 = 0.1623): 0.342 ± 0.027 S/m | electrical conductivity ([2]; w2 = 0.2793): 0.847 ± 0.068 S/m | electrical conductivity ([2]; w2 = 0.3676): 1.38 ± 0.11 S/m | electrical conductivity ([2]; w2 = 0.4366): 1.92 ± 0.15 S/m | electrical conductivity ([2]; w2 = 0.5375): 2.8 ± 0.22 S/m | electrical conductivity ([2]; w2 = 0.6078): 3.3 ± 0.26 S/m | electrical conductivity ([2]; w2 = 0.6595): 3.51 ± 0.28 S/m | electrical conductivity ([2]; w2 = 0.6992): 3.6 ± 0.29 S/m | electrical conductivity ([2]; w2 = 0.7561): 3.57 ± 0.29 S/m | electrical conductivity ([2]; w2 = 0.7999): 3.4 ± 0.27 S/m | electrical conductivity ([2]; w2 = 0.88): 2.93 ± 0.23 S/m | electrical conductivity ([2]; w2 = 0.9): 2.73 ± 0.22 S/m | electrical conductivity ([2]; w2 = 0.91): 2.38 ± 0.19 S/m | electrical conductivity ([2]; w2 = 0.925): 2.13 ± 0.17 S/m | electrical conductivity ([2]; w2 = 0.933): 1.94 ± 0.15 S/m | electrical conductivity ([2]; w2 = 0.943): 1.71 ± 0.14 S/m | electrical conductivity ([2]; w2 = 0.954): 1.47 ± 0.12 S/m | electrical conductivity ([2]; w2 = 0.967): 1.13 ± 0.09 S/m | electrical conductivity ([2]; w2 = 0.982): 0.677 ± 0.054 S/m

Structure (SMILES): C1CC[NH2+]C1.CCCCCC(=O)[O-] [pyrrolidinium hexanoate]
electrical conductivity [1]: 0.204 ± 0.016 S/m | viscosity [1]: 27.4 mPa·s | mass density [1]: 988 ± 60 kg/m3

Structure (SMILES): C1CC[NH2+]C1.CCCCCCC(=O)[O-] [pyrrolidinium heptanoate] + O
electrical conductivity ([2]; w2 = 0): 0.186 ± 0.015 S/m | electrical conductivity ([2]; w2 = 0.0476): 0.528 ± 0.042 S/m | electrical conductivity ([2]; w2 = 0.0909): 0.74 ± 0.059 S/m | electrical conductivity ([2]; w2 = 0.1489): 1.13 ± 0.09 S/m | electrical conductivity ([2]; w2 = 0.2): 1.41 ± 0.11 S/m | electrical conductivity ([2]; w2 = 0.2593): 1.8 ± 0.14 S/m | electrical conductivity ([2]; w2 = 0.2857): 1.97 ± 0.16 S/m | electrical conductivity ([2]; w2 = 0.3103): 2.12 ± 0.17 S/m | electrical conductivity ([2]; w2 = 0.3333): 2.22 ± 0.18 S/m | electrical conductivity ([2]; w2 = 0.3548): 2.31 ± 0.18 S/m | electrical conductivity ([2]; w2 = 0.375): 2.38 ± 0.19 S/m | electrical conductivity ([2]; w2 = 0.3939): 2.42 ± 0.19 S/m | electrical conductivity ([2]; w2 = 0.403): 2.44 ± 0.2 S/m | electrical conductivity ([2]; w2 = 0.4203): 2.47 ± 0.2 S/m | electrical conductivity ([2]; w2 = 0.4444): 2.53 ± 0.2 S/m | electrical conductivity ([2]; w2 = 0.4595): 2.56 ± 0.2 S/m | electrical conductivity ([2]; w2 = 0.4872): 2.59 ± 0.21 S/m | electrical conductivity ([2]; w2 = 0.5): 2.6 ± 0.21 S/m | electrical conductivity ([2]; w2 = 0.5238): 2.61 ± 0.21 S/m | electrical conductivity ([2]; w2 = 0.5556): 2.62 ± 0.21 S/m | electrical conductivity ([2]; w2 = 0.608): 2.47 ± 0.2 S/m | electrical conductivity ([2]; w2 = 0.7011): 2.12 ± 0.17 S/m | electrical conductivity ([2]; w2 = 0.805): 1.52 ± 0.12 S/m | electrical conductivity ([2]; w2 = 0.905): 0.728 ± 0.058 S/m

Structure (SMILES): O [water] + Cc1cccc[n+]1C.O=C[O-]
electrical conductivity ([2]; w1 = 1): 0.0001 ± 0.0001 S/m

Structure (SMILES): O [water] + C1CC[NH2+]C1.CCCCCCCCC(=O)[O-]
electrical conductivity ([2]; w1 = 1): 0.0001 ± 0.0001 S/m

Structure (SMILES): O [water] + C1CC[NH2+]C1.O=C[O-]
electrical conductivity ([2]; w1 = 1): 0.0001 ± 0.0001 S/m

Structure (SMILES): C1CC[NH2+]C1.CC(=O)[O-] [pyrrolidinium acetate]
electrical conductivity [1]: 0.594 ± 0.048 S/m | viscosity [1]: 30.2 mPa·s | mass density [1]: 1054.3 ± 60 kg/m3

Structure (SMILES): C1CC[NH2+]C1.O=C[O-] [pyrrolidinium formate] + O
electrical conductivity ([2]; w2 = 0): 3.29 ± 0.26 S/m | electrical conductivity ([2]; w2 = 0.0251): 4.01 ± 0.32 S/m | electrical conductivity ([2]; w2 = 0.0501): 4.44 ± 0.35 S/m | electrical conductivity ([2]; w2 = 0.0907): 4.95 ± 0.4 S/m | electrical conductivity ([2]; w2 = 0.1666): 5.99 ± 0.48 S/m | electrical conductivity ([2]; w2 = 0.2304): 6.71 ± 0.54 S/m | electrical conductivity ([2]; w2 = 0.2853): 7.2 ± 0.6 S/m | electrical conductivity ([2]; w2 = 0.3329): 7.54 ± 0.6 S/m | electrical conductivity ([2]; w2 = 0.3745): 7.73 ± 0.62 S/m | electrical conductivity ([2]; w2 = 0.4113): 7.83 ± 0.63 S/m | electrical conductivity ([2]; w2 = 0.4439): 7.83 ± 0.63 S/m | electrical conductivity ([2]; w2 = 0.4995): 7.77 ± 0.62 S/m | electrical conductivity ([2]; w2 = 0.5647): 7.33 ± 0.59 S/m | electrical conductivity ([2]; w2 = 0.5828): 7.04 ± 0.56 S/m | electrical conductivity ([2]; w2 = 0.6662): 6.36 ± 0.51 S/m | electrical conductivity ([2]; w2 = 0.7055): 5.92 ± 0.47 S/m | electrical conductivity ([2]; w2 = 0.7496): 5.36 ± 0.43 S/m | electrical conductivity ([2]; w2 = 0.7917): 4.48 ± 0.36 S/m | electrical conductivity ([2]; w2 = 0.8607): 3.18 ± 0.25 S/m | electrical conductivity ([2]; w2 = 0.9018): 2.13 ± 0.17 S/m | electrical conductivity ([2]; w2 = 0.9106): 1.88 ± 0.15 S/m

Structure (SMILES): CCCC(C)[NH3+].O=C[O-] (stereo not given) [2-pentanaminium formate]
electrical conductivity [1]: 0.036 ± 0.003 S/m | mass density [1]: 1163 ± 60 kg/m3

Structure (SMILES): C1CC[NH2+]C1.CCCCCCCC(=O)[O-] [pyrrolidinium octanoate]
electrical conductivity [1]: 0.08 ± 0.006 S/m | viscosity [1]: 36.5 mPa·s | mass density [1]: 949.5 ± 60 kg/m3

Structure (SMILES): O [water] + C1CC[NH2+]C1.O=[N+]([O-])[O-]
electrical conductivity ([2]; w1 = 1): 0.0001 ± 0.0001 S/m

Structure (SMILES): O [water] + C1CC[NH2+]C1.CCCCCC(=O)[O-]
electrical conductivity ([2]; w1 = 1): 0.0001 ± 0.0001 S/m

Structure (SMILES): Cc1ccc[n+](C)c1C.O=C[O-] [1,2,3-trimethylpyridinium formate]
electrical conductivity [1]: 0.68 ± 0.054 S/m | viscosity [1]: 10 mPa·s | mass density [1]: 1167.6 ± 60 kg/m3
